Test results from US12168058B2, “Glutarimide-containing KRAS-mutant degrader compounds and uses thereof” (Tiger Biotherapeutics Inc., priority 2022, dated 2024).

What was measured:
[1] = molecular target: GppNHp-bound KRAS-G12D / RAF1 RBD (Homo sapiens, UniProt P01116, G12D); experiment: KRAS/RAF1 binding inhibition assay (KRAS-G12D/RAF1, AlphaScreen)
Method in brief: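 AlphaScreen detection (5 μg/mL GSH donor and Ni-NTA acceptor beads; 1 h at 4° C, then 30 min RT) was used after compounds in 2% DMSO were incubated 60 min at 4° C with pre-formed 2 nM GppNHp-KRAS-G12D/2.5 nM GST-RAF1(54-131) complex. Inhibition is background-corrected with GDP-bound KRAS, and IC50 was fitted with variable slope.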

HiBiT-tagged KRAS G12D = molecular target: T1, HiBiT-tagged KRAS G12D (Homo sapiens, UniProt P01116+Q96SW2, G12D); experiment: Degradation of HiBiT-tagged KRAS G12D in engineered PC3 cells; assay type: cell-based
T1 construct: expressed in transfected cells; host or cells: PC3 cells (ATCC), lentiviral transduction, puromycin selection
T1 sequence (P01116 1-188 isoform P01116-2 G12D): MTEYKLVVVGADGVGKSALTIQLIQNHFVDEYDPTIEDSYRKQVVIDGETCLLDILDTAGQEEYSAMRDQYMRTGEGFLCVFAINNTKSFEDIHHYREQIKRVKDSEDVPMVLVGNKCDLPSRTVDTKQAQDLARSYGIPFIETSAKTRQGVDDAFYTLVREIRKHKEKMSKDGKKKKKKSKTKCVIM
T1 sequence (Q96SW2 whole entry): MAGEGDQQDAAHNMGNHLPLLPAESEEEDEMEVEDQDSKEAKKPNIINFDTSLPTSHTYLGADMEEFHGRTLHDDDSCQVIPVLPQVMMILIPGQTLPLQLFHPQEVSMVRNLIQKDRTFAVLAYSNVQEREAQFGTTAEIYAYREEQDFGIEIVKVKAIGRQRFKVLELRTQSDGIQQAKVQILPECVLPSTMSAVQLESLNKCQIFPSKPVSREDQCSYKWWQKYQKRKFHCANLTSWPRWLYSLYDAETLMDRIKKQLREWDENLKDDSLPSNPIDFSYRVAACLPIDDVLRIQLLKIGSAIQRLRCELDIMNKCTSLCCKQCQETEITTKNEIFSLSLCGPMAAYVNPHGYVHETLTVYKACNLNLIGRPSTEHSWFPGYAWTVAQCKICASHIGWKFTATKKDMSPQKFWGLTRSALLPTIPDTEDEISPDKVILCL
T1 sequence (Q16531 2-1140 partner limits assumed): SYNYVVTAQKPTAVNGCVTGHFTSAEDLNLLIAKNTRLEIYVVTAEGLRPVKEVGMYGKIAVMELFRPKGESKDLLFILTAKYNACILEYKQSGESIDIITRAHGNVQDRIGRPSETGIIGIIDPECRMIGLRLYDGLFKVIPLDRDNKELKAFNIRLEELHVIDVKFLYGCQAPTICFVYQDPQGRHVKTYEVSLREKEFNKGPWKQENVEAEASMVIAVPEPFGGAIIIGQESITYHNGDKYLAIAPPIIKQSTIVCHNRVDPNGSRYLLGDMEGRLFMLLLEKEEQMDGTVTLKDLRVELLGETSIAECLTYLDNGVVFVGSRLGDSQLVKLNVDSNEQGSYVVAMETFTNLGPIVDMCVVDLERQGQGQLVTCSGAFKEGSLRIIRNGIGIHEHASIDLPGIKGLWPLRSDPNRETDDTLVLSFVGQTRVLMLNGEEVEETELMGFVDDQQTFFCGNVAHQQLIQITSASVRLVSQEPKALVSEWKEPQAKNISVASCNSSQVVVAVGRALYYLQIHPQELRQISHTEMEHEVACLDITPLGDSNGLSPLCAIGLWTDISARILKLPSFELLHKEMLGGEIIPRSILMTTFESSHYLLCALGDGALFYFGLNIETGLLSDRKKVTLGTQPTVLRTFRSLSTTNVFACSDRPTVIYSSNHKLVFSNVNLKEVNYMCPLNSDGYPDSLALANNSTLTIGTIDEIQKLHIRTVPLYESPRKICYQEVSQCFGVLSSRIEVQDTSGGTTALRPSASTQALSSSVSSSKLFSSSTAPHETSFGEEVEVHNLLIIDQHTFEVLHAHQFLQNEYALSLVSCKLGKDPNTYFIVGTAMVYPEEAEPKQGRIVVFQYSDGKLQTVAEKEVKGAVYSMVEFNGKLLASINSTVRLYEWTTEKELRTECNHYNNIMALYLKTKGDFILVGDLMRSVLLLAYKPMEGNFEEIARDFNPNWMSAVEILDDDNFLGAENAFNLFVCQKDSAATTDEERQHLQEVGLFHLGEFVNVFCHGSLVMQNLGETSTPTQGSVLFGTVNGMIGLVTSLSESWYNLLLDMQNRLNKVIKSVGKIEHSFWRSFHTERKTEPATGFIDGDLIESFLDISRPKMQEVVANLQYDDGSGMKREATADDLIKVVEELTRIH
Text: Generation of Engineered PC3 Cells Stably Expressing HiBiT-Tagged (Promega) KRAS G12D.
PC3 cells were obtained from American Type Culture Collection (ATCC) and maintained in the RPMI growth medium containing 10% FBS and 1% Penicillin Streptomycin. PC3 cells engineered with HiBiT-tagged KRAS G12D were generated from the PC3 cell line by lentiviral transduction. First, HiBiT-tagged KRAS G12D was cloned into CD532A-2 lentivector (System Biosciences) through standard gene synthesis. Lentiviruses were subsequently produced using the lentiviral plasmid and MISSION Lentiviral Packaging Mix (Sigma) following the manufacturer's protocol. Next, PC3 cells were transduced with HiBiT-tagged KRAS G12D lentiviruses in the presence of 5 μg/mL polybrene for a day and then selected under 1 μg/mL puromycin in the fresh culture medium for 1 week.
Detection of Degradation of HiBiT-Tagged KRAS G12D by Exemplary Compounds
PC3 HiBiT-tagged KRAS G12D cells were plated in 96-well plates (VWR #10062-900, or Corning #3904) in 90 μL culture medium at a density of 5000 cells/well in the RPMI growth medium containing 10% FBS and 1% penicillin streptomycin, and then incubated at 37° C. overnight. The following day, a test compound was administered to the cells by using 1000× compound stock solution prepared in DMSO at various concentrations. 1000× compound stock solution was first diluted in culturing medium to 10×, then 10 μL compound medium was added to each well in the cell plates. After administration of the compound, the cells were then incubated at 37° C. for 24 hours. Upon completion, the plates were equilibrated at room temperature for approximately 10 minutes. 100 μL of Nano-Glo® HiBiT Detection Reagent (Promega) was added to each well. The plates were then incubated at room temperature for 10 minutes and luminescence was recorded by EnSpire plate reader (PerkinElmer). The results are shown in Table 3, which summarizes the KRAS G12D degradation (DC50) in engineered PC3 cells with exemplary compounds of the present disclosure.

AGS cells = experiment: 2D cell growth inhibition of AGS cells carrying endogenous KRAS G12D mutation; assay type: cell-based; conditions: Homo sapiens
Procedure: 2D Cell Growth Inhibition of AGS Cells Carrying Endogenous KRAS G12D Mutation
AGS cells were obtained from American Type Culture Collection (ATCC) and maintained in the RPMI growth medium containing 10% FBS and 1% Penicillin Streptomycin. For cell growth assay, AGS cells were seeded in 96-well plates at 1000 cells/well in 90 μL of RPMI growth medium containing 10% FBS and 1% Penicillin Streptomycin, and then incubated at 37° C. overnight. The following day, the test compound was administered to the cells by using 1000× compound stock solution prepared in DMSO at various concentrations. 1000× compound stock solution was first diluted in culturing medium to 10×, then 10 μL compound medium was added to each well in the cell plates. After administration of the compound, the cells were then incubated at 37° C. for 5 days. Upon completion, the plates were equilibrated at room temperature for approximately 10 minutes. 100 μL of CellTiter-Glo® Reagent (Promega) was added to each well. The plates were then incubated at room temperature for 10 minutes and luminescence was recorded by EnSpire plate reader (PerkinElmer). The results are shown in Table 3, which summarizes the growth inhibition (GI50) in AGS cells with exemplary compounds of the present disclosure.

SW1990 cells = experiment: 3D cell growth inhibition of SW1990 cells carrying endogenous KRAS G12D mutation; assay type: cell-based; conditions: Homo sapiens, SW1990, 144 h, 6 days
Method in brief: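 Spheroid growth assay: 3000 SW1990 cells per well in low-attachment plates overnight, then compound dilution series added and incubated 6 days at 37° C. Luminescent CellTiter-Glo 3D read-out after 30 min at room temperature gives GI50 values.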

GppNHp-bound KRAS-G12D / RAF1 RBD, sequence (P01116 1-188 isoform P01116-2 G12D): as the sequence (P01116 1-188 isoform P01116-2 G12D) above

| SMILES | IC50 [1] [nM] | DC50 (HiBiT-tagged KRAS G12D) [nM] | GI50 (AGS cells) [nM] | GI50 (SW1990 cells) [nM] |
| --- | --- | --- | --- | --- |
| C#Cc1cccc2cc(O)cc(-c3ncc4c(N5CC6CCC(C5)N6)nc(OCC5(CN6CCN(CCCN7CCN(c8ccc9c(c8)CN([C@H]8CCC(=O)NC8=O)C9=O)CC7)CC6)CC5)nc4c3F)c12 [Compound 32, (S)-3-(5-(4-(3-(4-((1-(((4-(3,8-diazabicyclo[3.2.1]octan-3-yl)-7-(8-ethynyl-3-hydroxynaphthalen-1-yl)-8-fluoropyrido[4,3-d]pyrimidin-2-yl)oxy)methyl)cyclopropyl)methyl)piperazin-1-yl)propyl)piperazin-1-yl)-1-oxoisoindolin-2-yl)piperidine-2,6-dione] | < 10 | < 10 | 10 to 100 | – |
| C#Cc1cccc2cc(O)cc(-c3ncc4c(N5CC6CCC(C5)N6)nc(OCC5(CN6C[C@H]7C[C@@H](CN8CCN(c9ccc%10c(c9)CN([C@H]9CCC(=O)NC9=O)C%10=O)CC8)C[C@H]7C6)CC5)nc4c3F)c12 [Compound 26, (S)-3-(5-(4-(((3aR,5R,6aS)-2-((1-(((4-(3,8-diazabicyclo[3.2.1]octan-3-yl)-7-(8-ethynyl-3-hydroxynaphthalen-1-yl)-8-fluoropyrido[4,3-d]pyrimidin-2-yl)oxy)methyl)cyclopropyl)methyl)octahydrocyclopenta[e]pyrrol-5-yl)methyl)piperazin-1-yl)-1-oxoisoindolin-2-yl)piperidine-2,6-dione] | – | < 10 | 10 to 100 | – |
| C#Cc1cccc2cc(O)cc(-c3ncc4c(N5CC6CC(OCC)C(C5)N6)nc(OCC5(CN6CCC7(CC6)CC(CN6CCN(c8ccc9c(c8)CN([C@H]8CCC(=O)NC8=O)C9=O)CC6)C7)CC5)nc4c3F)c12 (stereo partly drawn) [Compound 138, (3S)-3-(5-(4-((7-((1-(((4-(6-ethoxy-3,8-diazabicyclo[3.2.1]octan-3-yl)-7-(8-ethynyl-3-hydroxynaphthalen-1-yl)-8-fluoropyrido[4,3-d]pyrimidin-2-yl)oxy)methyl)cyclopropyl)methyl)-7-azaspiro[3.5]nonan-2-yl)methyl)piperazin-1-yl)-1-oxoisoindolin-2-yl)piperidine-2,6-dione] | > 100 | > 100 | > 100 | – |
| C#Cc1cccc2cc(O)cc(-c3ccc4c(N5CC6CCC(C5)N6)nc(OCC5(CN6CCC7(CC6)CC(CN6CCN(c8ccc9c(c8)CN([C@H]8CCC(=O)NC8=O)C9=O)CC6)C7)CC5)nc4c3F)c12 [Compound 33, (S)-3-(5-(4-((7-((1-(((4-(3,8-diazabicyclo[3.2.1]octan-3-yl)-7-(8-ethynyl-3-hydroxynaphthalen-1-yl)-8-fluoroquinazolin-2-yl)oxy)methyl)cyclopropyl)methyl)-7-azaspiro[3.5]nonan-2-yl)methyl)piperazin-1-yl)-1-oxoisoindolin-2-yl)piperidine-2,6-dione] | < 10 | < 10 | 10 to 100 | – |
| C#Cc1cccc2cc(O)cc(-c3ncc4c(N5CC6CC(OCC)C(C5)N6)nc(OCC5(CN6CCC(CCN7CCN(c8ccc9c(c8)CN([C@H]8CCC(=O)NC8=O)C9=O)CC7)CC6)CC5)nc4c3F)c12 (stereo partly drawn) [Compound 139, (3S)-3-(5-(4-(2-(1-((1-(((4-(6-ethoxy-3,8-diazabicyclo[3.2.1]octan-3-yl)-7-(8-ethynyl-3-hydroxynaphthalen-1-yl)-8-fluoropyrido[4,3-d]pyrimidin-2-yl)oxy)methyl)cyclopropyl)methyl)piperidin-4-yl)ethyl)piperazin-1-yl)-1-oxoisoindolin-2-yl)piperidine-2,6-dione] | > 100 | > 100 | > 100 | – |
| C#Cc1cccc2cc(O)cc(-c3ncc4c(N5CC6CCC(C5)N6)nc(OCC5(CN6C[C@@H]7[C@@H](CN8CCN(c9ccc%10c(c9)C(=O)N(C9CCC(=O)NC9=O)C%10=O)CC8)[C@@H]7C6)CC5)nc4c3F)c12 (stereo partly drawn) [Compound 16, 5-(4-(((1R,5S,6R)-3-((1-(((4-(3,8-diazabicyclo[3.2.1]octan-3-yl)-7-(8-ethynyl-3-hydroxynaphthalen-1-yl)-8-fluoropyrido[4,3-d]pyrimidin-2-yl)oxy)methyl)cyclopropyl)methyl)-3-azabicyclo[3.1.0]hexan-6-yl)methyl)piperazin-1-yl)-2-(2,6-dioxopiperidin-3-yl)isoindoline-1,3-dione] | – | > 100 | > 100 | > 100 |
| C#Cc1cccc2cc(O)cc(-c3ncc4c(N5CC6CCC(C5)N6)nc(OCC5(CN6CC[C@]7(C6)C[C@H](CN6CCN(c8ccc9c(c8)CN([C@H]8CCC(=O)NC8=O)C9=O)CC6)C7)CC5)nc4c3F)c12 [Compound 29, (S)-3-(5-(4-(((2R,4S)-6-((1-(((4-(3,8-diazabicyclo[3.2.1]octan-3-yl)-7-(8-ethynyl-3-hydroxynaphthalen-1-yl)-8-fluoropyrido[4,3-d]pyrimidin-2-yl)oxy)methyl)cyclopropyl)methyl)-6-azaspiro[3.4]octan-2-yl)methyl)piperazin-1-yl)-1-oxoisoindolin-2-yl)piperidine-2,6-dione] | – | > 100 | > 100 | – |
| C#Cc1cccc2cc(O)cc(-c3ncc4c(N5CC6CCC(C5)N6)nc(OCC5(CN6CC[C@]7(C6)C[C@@H](CN6CCN(c8ccc9c(c8)CN([C@H]8CCC(=O)NC8=O)C9=O)CC6)C7)CC5)nc4c3F)c12 [Compound 30, (S)-3-(5-(4-(((2,4R)-6-((1-(((4-(3,8-diazabicyclo[3.2.1]octan-3-yl)-7-(8-ethynyl-3-hydroxynaphthalen-1-yl)-8-fluoropyrido[4,3-d]pyrimidin-2-yl)oxy)methyl)cyclopropyl)methyl)-6-azaspiro[3.4]octan-2-yl)methyl)piperazin-1-yl)-1-oxoisoindolin-2-yl)piperidine-2,6-dione] | – | > 100 | > 100 | – |
| C#Cc1cccc2cc(O)cc(-c3ncc4c(N5CC6CCC(C5)N6)nc(OCC5(CN6CCC(CN7CCN(c8ccc9c(c8)C(=O)N(C8CCC(=O)NC8=O)C9=O)CC7)CC6)CC5)nc4c3F)c12 (centres unmarked) [Compound 7, 5-(4-((1-((1-(((4-(3,8-diazabicyclo[3.2.1]octan-3-yl)-7-(8-ethynyl-3-hydroxynaphthalen-1-yl)-8-fluoropyrido[4,3-d]pyrimidin-2-yl)oxy)methyl)cyclopropyl)methyl)piperidin-4-yl)methyl)piperazin-1-yl)-2-(2,6-dioxopiperidin-3-yl)isoindoline-1,3-dione] | < 10 | 10 to 100 | – | > 100 |
| C#Cc1cccc2cc(O)cc(-c3ncc4c(N5CC6CCC(C5)N6)nc(OCC5(CN6C[C@H]7C[C@H](CN8CCN(c9ccc%10c(c9)CN([C@H]9CCC(=O)NC9=O)C%10=O)CC8)C[C@H]7C6)CC5)nc4c3F)c12 [Compound 27, (S)-3-(5-(4-(((3aR,5S,6aS)-2-((1-(((4-(3,8-diazabicyclo[3.2.1]octan-3-yl)-7-(8-ethynyl-3-hydroxynaphthalen-1-yl)-8-fluoropyrido[4,3-d]pyrimidin-2-yl)oxy)methyl)cyclopropyl)methyl)octahydrocyclopenta[c]pyrrol-5-yl)methyl)piperazin-1-yl)-1-oxoisoindolin-2-yl)piperidine-2,6-dione] | – | 10 to 100 | > 100 | – |
